According to EP0824862A1, “Dihaloformaldoxime carbamates as antimicrobial agents” (ROHM AND HAAS COMPANY, priority 1996, dated 1998):
Values after ≈ are worked out from the molar mass of the structure shown.

Experiments:
Type in all cases: cell-based
Aspergillus niger = experiment: Minimum Inhibitory Concentration (MIC) test, two fold serial dilutions; details: Trypticase Soy Broth (TSB); unit assumed
Procedure: (§1) The spectrum of antimicrobial activity and the effect of anionic surfactant on the antimicrobial activity of the antimicrobial agents useful in the present invention were determined in Minimum Inhibitory Concentration (MIC) tests. MICs were determined by two fold serial dilutions of a compound in Minimal Salts Media (M9G), Trypticase Soy Broth (TSB) or Tryticase Soy Broth and anionic surfactant (TSBA). The compounds were tested against Aspergillus niger, Rhodotorula rubra, Escherichia coli and Pseudomonas aeruginosa. Results of the MIC tests are shown below.

Escherichia coli = experiment: as above; details: unit assumed; for MIC E.Coli M9G: Minimal Salts Media (M9G); for MIC E. Coli TSB: Trypticase Soy Broth (TSB); for MIC E. coli TSBA: Trypticase Soy Broth and anionic surfactant (TSBA)
Procedure: as §1

Pseudomonas aeruginosa = experiment: as above; details: Trypticase Soy Broth (TSB); unit assumed
Procedure: as §1

Rhodotorula rubra = experiment: as above; details: Trypticase Soy Broth (TSB); unit assumed
Procedure: as §1

[1] = tested on: Pseudomonas aeruginosa, Klebsiella pneumonia, Enterobacter aerogenes; experiment: Speed of kill test in synthetic cooling water; details: mixed culture 1:1:1, 10^6 cells per mL, concentration giving at least a two log reduction

SMILES | MIC A. niger TSB (Aspergillus niger) [µg/mL] | MIC E.Coli M9G (Escherichia coli) [µg/mL] | MIC E. Coli TSB (Escherichia coli) [µg/mL] | MIC E. coli TSBA (Escherichia coli) [µg/mL] | MIC P. aeruginosa TSB (Pseudomonas aeruginosa) [µg/mL] | MIC R. Rubra TSB (Rhodotorula rubra) [µg/mL] | Effective Concentration 4 Hours [1] [ppm] | Effective Concentration 24 Hours [1] [ppm]
O=C(Nc1ccc(Cl)cc1)ON=C(Br)Br [Compound 3, N-(4-chlorophenyl)-dibromoformaldoxime carbamate] | > 50 | < 4 | 63 (≈ 177 µM) | 63 (≈ 177 µM) | 63 (≈ 177 µM) | > 50 | 8 | <4
CCCCNC(=O)ON=C(Br)Br [Compound 6, N-(n-butyl)-dibromoformaldoxime carbamate] | > 50 | < 4 | 250 (≈ 828 µM) | 63 (≈ 209 µM) | 63 (≈ 209 µM) | > 50 | 16 | 16
CCCCCCCCNC(=O)ON=C(Br)Br [Compound 7, N-(n-octyl)-dibromoformaldoxime carbamate] | 50 (≈ 140 µM) | < 4 | 63 (≈ 176 µM) | 125 (≈ 349 µM) | > 500 | 12.5 (≈ 34.9 µM) |  | 
CCCCCCNC(=O)ON=C(Br)Br [Compound 8, N-(n-hexyl)-dibromoformaldoxime carbamate] | > 50 | < 4 | 63 (≈ 191 µM) | 32 (≈ 97 µM) | 125 (≈ 379 µM) | 25 (≈ 75.8 µM) | <4 | <4
Cc1ccc(NC(=O)ON=C(Br)Br)cc1 [Compound 9, N-(4-methylphenyl)-dibromoformaldoxime carbamate] | < 0.8 | < 4 | 32 (≈ 95.2 µM) | 32 (≈ 95.2 µM) | 16 (≈ 47.6 µM) | 3.2 (≈ 9.52 µM) | 125 | 8
